Reference: a melting point compilation (Tetko et al.; mined from patent text by program, amines drawn as free bases though some values may be those of a salt)

Compound	melting point [°C]
COC(=O)c1cc(=O)c2ccccc2o1	120 to 122
Clc1ccccc1-c1nc(-c2ccccn2)no1	93 to 94
N#CC(c1ccccc1)(c1ccccc1)C1CCN(C(=O)Oc2ccccc2)C1 (configuration not stated)	154 to 155
CN1C(=O)CC[C@]2(C)c3ccc(-c4cc5ccccc5s4)cc3CC[C@@H]12	247 to 250
Cc1cc(O)cc(C)c1C=O	190
COc1ccc(C(=O)Nc2ccc(C)cc2)cc1N	190 to 194
Cc1ccc2c(c1)NCc1ccccc1O2	84 to 86
CC1(CO)OCC2(CO1)COC(C)(CO)OC2 (configuration not stated)	127 to 128
O=C(O)C(CSc1nc2ccccc2[nH]1)CS(=O)(=O)c1ccc(-c2ccc(Cl)cc2)cc1 (configuration not stated)	176 to 179
CS(=O)(=O)c1ccc(-c2cnn(-c3ccc(F)cc3)c(=O)c2C#Cc2ccccc2)cc1	203 to 204
Cc1coc(N(CCCCCCN)c2nc(C)co2)n1	124
Cc1cc(C(=O)NCCO)ncc1C(c1cc(F)ccc1F)S(=O)(=O)c1cc(F)cc(F)c1 (configuration not stated)	82 to 84
O=C(O)CCc1cnoc1-c1cc(Cl)cc(Cl)c1	143 to 144
Cc1ccc(C(=O)O)cc1Nc1nccc(-c2cccnc2)n1	277 to 278
CC(=O)Nc1ccc(-c2cc(-c3c(-c4cccc(C)n4)nc4ccccn34)ccn2)cc1	257
CC(C)(C)NC(=O)[C@@H]1C[C@@H]2CCCC[C@@H]2CN1C[C@H]1OC(=O)N[C@H]1Cc1ccccc1	202 to 204
Cn1c(-c2cccs2)nnc1S(C)=O (configuration not stated)	105 to 107
C#CCN1C(=O)COc2cc(F)c(-c3ccc(C(F)(F)F)n(C)c3=O)cc21	166 to 168
Cc1cc(COc2ccc(S(=O)(=O)NC[C@@H](C(=O)NO)N3CCN(S(C)(=O)=O)CC3)cc2)c2ccccc2n1	185
CSc1ccc(NC#N)c(-c2ccccc2)c1	85
CC(C)(C)OC(=O)Nc1cccc(C(=O)NCCC(=O)OCc2ccccc2)c1	130 to 131
COc1ccc(CC2SC(=O)NC2=O)cc1C(=O)NCc1ccc([N+](=O)[O-])cc1 (configuration not stated)	236 to 238
O=C(c1ccc(O)cc1)c1c(-c2ccccc2)cc2ccccn12	179
COc1ccc2c(c1)C(=O)C(=O)C=C2	78 to 80

Compound	melting point [°C]
CN1CCOc2ccc(/C=C/C(=O)O)cc21	190
COc1ccc(C(=O)[C@H](C)NC(=O)OCc2ccccc2)cc1	46 to 48
COc1cc(Br)c(C(C)=O)cc1OC(C)C	59 to 59.9
Cn1c2ccc(F)cc2c(=O)n2nc(-c3nnn[nH]3)cc12	350 to 360
Cc1cc(CCCCCOc2ccc(-c3cnco3)cc2)on1	91 to 93
CCCOc1ccccc1-c1nc2c(C(=O)NCC)cccc2c(=O)[nH]1	161 to 162
O=C1CCC(N2C(=O)c3cccc(OCc4ccc(CN5CCN6N=C(C(F)(F)F)NC6C5)cc4)c3C2=O)C(=O)N1 (configuration not stated)	128 to 130
Cn1cc(C(=O)NCC(=O)NCC2(O)CCC2)c(C(F)(F)F)n1	210
O=C1c2cccc3cccc(c23)C(=O)N1CCCCO	105 to 108
COC(=O)c1cc(-c2ccncc2)sc1-c1ccncc1	133 to 135
O=c1c2c[nH]c3c(c-2nn1-c1ccc(Cl)cc1)CN(CCc1ccccc1)CC3	256 to 259
CC(C)(C)c1nn(-c2c(Cl)cc(C(F)(F)F)cc2Cl)c(N)c1Cl	137
N#Cc1ccc(CC23CCCN2C(=O)N(c2cc(Cl)c(N)c(Cl)c2)C3=O)cc1 (configuration not stated)	103
CCOc1ccc(-c2c(C)c3cc(O)ccc3n2Cc2ccc(OCCN3CCCCC3)cc2)cc1	173 to 175
O=C(O)c1snnc1C1CC1	158 to 159
CN1C(=O)N(C)C(O)(c2ccccc2)c2cc(Cl)ccc21 (configuration not stated)	174 to 176
CN(C(=O)OC(C)(C)C)C(S)=NC(=O)OC(C)(C)C	118
[N-]=[N+]=N[C@@H](Cc1ccccc1)[C@H](O)CO	83 to 84
Cc1cc(C)cc(C(=O)N2CCC(Oc3nc4ccccc4n3Cc3ccc(F)cc3)CC2Cc2ccccc2)c1 (configuration not stated)	154
Cc1cc(-n2ccnc2)c2cccc(OCc3c(Cl)ccc(S(=O)(=O)N4CCC[C@H]4C(=O)NCCN4CCCCC4)c3Cl)c2n1	108
O=C(O)c1cc(-c2ccccc2Cl)c[nH]c1=O	299 to 303
CC(C#N)CCCC(N(C)C)C1(c2ccc(Cl)cc2)CCC1 (configuration not stated)	54 to 56
CSc1cc(C)nc(SC)c1NC(=O)CCCCCCSc1nc2ccccc2[nH]1	189 to 192
NC(=O)c1cccc(-c2noc(-c3ccccc3F)n2)c1	231 to 234

Compound	melting point [°C]
CC(C)(C)SC[C@H](NC(=O)C(CS)Cc1ccccc1)C(=O)O (some centres not stated)	68 to 75
O=c1ccc2c(OS(=O)(=O)C(F)(F)F)cccc2o1	104 to 105
Cc1c(-c2ccncc2)[nH]c(-c2ccncc2)c1CO	258 to 261
CC(=O)C(Cc1cc(O)c(O)c([N+](=O)[O-])c1)C(=O)C1CC1 (configuration not stated)	98 to 104
CCc1cccc(CC)c1-n1cnc(N)nc1=O	136 to 138
O=C(N[C@H](Cc1ccccc1)C(=O)O)OCc1ccc2[nH]c(-c3ccccc3)cc2c1	176 to 177
CN(CCOc1ccc(C=C2SC(=O)NC2=O)cc1)c1ccccn1	177 to 179
CC1(CNC(=O)C(F)(F)F)CN(C(c2ccccc2)c2ccccc2)C1	127 to 128
CC(C)Cc1nn(C)c(=O)c2c(S(=O)CCCO)c(Cc3cccc4ccccc34)sc12 (configuration not stated)	60 to 65
COC(=O)c1ccc(Cc2cc3cc(C(F)(F)F)ccc3n2S(=O)(=O)c2ccc(C(C)C)cc2)cc1F	132
Cc1cc(-n2ccnc2)c2cccc(OCc3c(Cl)ccc(S(=O)(=O)N4CCC[C@H]4C(=O)NCC4CCN(C)CC4)c3Cl)c2n1	86
CN(O)C(=O)C1=Cc2cc(OCc3ccccc3)ccc2OC1	143 to 146
COc1cc(-c2cnc3ccccc3n2)cc([N+](=O)[O-])c1O	195 to 197
CC(=O)OCc1ccc(N(c2ccccc2)c2ccc(C=CC=O)cc2)cc1	112 to 115
Nc1ccccc1C(=O)NN1CCOCC1	172
Cc1cccc(-c2ccc3ccc(NC(=O)c4cccc(Br)c4)nc3n2)c1	100
CC1(C2CCCC2)Cc2cc(NCCO)c(Cl)c(Cl)c2C1=O (configuration not stated)	135 to 136
COc1ccc(S(=O)(=O)N(CCO)c2ccc(Cl)cc2C(O)c2ccccc2Cl)cc1OC (configuration not stated)	86.2
CN(C1=CC(=O)c2nccnc2C1=O)c1ccccc1	207 to 208
NC(=O)c1c(C(=O)O)cccc1[N+](=O)[O-]	188
CCOC(=O)c1ccc(N2CCN(C(=O)c3ccc(Cl)cc3)CC2)cc1	147 to 150
CC(=O)NCCC1CCc2ccc3nc(C(F)(F)F)oc3c21 (configuration not stated)	114 to 116
CON(C)C(=O)c1cc2cccc(NS(=O)(=O)c3cccs3)c2[nH]1	180 to 181
N#Cc1c[nH]c2cc(F)c(OCc3ccccc3)cc2c1=O	> 250
